≈ marks a conversion by molar mass, not a printed value.
Columns and labels:
[1] = system: E. coli strain DPD2444 (yhcP::TN<Kan>); test: MIC, 2-fold dilutions, Vogel-Bonner medium with 0.4% glucose; format: cell-based; conditions: Escherichia coli, read-out: MIC for pHBA
From the text: The yhcP::TN<Kan> was introduced into E. coli strain MG1655 (obtained from Prof. Douglas Berg, Washington University School of Medicine, St. Louis, […].) by P1clr100 Cm mediated transduction to kanamycin resistance using phage lysates of E. coli strain DPD2443. One of the resultant kanamycin resistant transductants was named DPD2444.

[2] = system: yhcRQP-luxCDABE gene fusion in strain DPD2436 (yhcS+); test: Bioluminescence response of yhcRQP-luxCDABE gene fusion; format: cell-based, E. coli; conditions: LB pH 7.0, sodium salt
From the text: (§1) Plasmid pDEW655 was constructed by ligating an E. coli chromosomal segment between nucleotides 3385829 and 3386761 according to the E. coli genomic sequence, which contains the promoter region of the putative yhcRQP operon and the entire yhcR gene and the 5′ end of the yhcQ gene, to the luxCDABE genes parental plasmid, pDEW201 (Gonye et al. U.S. Patent Application Publication 20030219736). Thus, this gene fusion will report on expression of the yhcQ gene and accordingly any other genes cotranscribed with it. Plasmid pDEW655 was moved to E. coli strains MG1655 and DPD2433 by transformation, selecting for Ampicillin resistance to generate strains DPD2436 and DPD2437, respectively. The bioluminescent response of these two strains to pHBA was tested.

[3] = system: yhcRQP-luxCDABE gene fusion in strain DPD2437 (yhcS−); test: as above; format: cell-based, E. coli; conditions: LB pH 7.0, sodium salt
From the text: as §1

E. coli strain MG1655 = test: pHBA zone of growth inhibition on solidified Vogel-Bonner medium; format: cell-based; conditions: sodium salt of pHBA 80 μmoles/disk, Vogel-Bonner with glucose
Protocol: (§4) This was tested by measuring the size of the zone of growth inhibition and scoring the degree of growth within the zones resulting from the sodium salt of pHBA (80 μmoles/disk) on solidified Vogel-Bonner medium with glucose as the carbon source (Table 5).

[4] = system: E. coli strain DPD2433 (yhcS−); test: as above; format: cell-based; conditions: sodium salt of pHBA 80 μmoles/disk, Vogel-Bonner with glucose
Protocol: as §4

E. coli DPD2444 (yhcP−) = test: microbe, parasite or virus in culture; format: cell-based
Protocol: (§2) Additional compounds were tested for growth inhibition of E. coli MG1655 (yhcP^+) and DPD2444 (yhcP^−) in Vogel-Bonner medium with glucose as the carbon source and with 0.01% tetrazolium violet added as an indicator of viability. A series of two-fold dilutions of each chemical was made to the wells of a clear 96-well microplate in 50 μl volume. To these wells was added 50 μl of an overnight culture in Vogel Bonner medium with glucose as a carbon source of either MG1655 or DPD2444 that had been previously diluted 500-fold into fresh medium. The plates were incubated at 37° C. without shaking for 16 to 18 hours. The purple color in each well was visually scored. A score of 4+ indicated full purple color equivalent to a no chemical control well. Scores of 3+, 2+, or 1+ indicated decreasing amounts of purple color. A score of − indicated the complete absence of color. The MIC was defined as the lowest tested concentration that gave complete absence of color. The rank of difference between strains was defined as the score of pigment color for E. coli MG1655 in wells containing the concentration of a given chemical at the MIC for DPD24444. When MG1655 had no color, the score was 0. When MG 1655 was scored at 1+, the score was 1, when scored at 2+, the score was 2, etc.

E. coli MG1655 (yhcP+) = test: microbe, parasite or virus in culture; format: cell-based
Protocol: as §2

[5] = system: E. coli DPD1818 (tolC−) with pDEW668 (yhcRQP); test: pHBA MIC, 3:4 dilutions, Vogel-Bonner medium with 0.4% glucose; format: cell-based; conditions: Escherichia coli, 21 h, read-out: pHBA MIC
From the text: (§3) An additional experiment is consistent with the above conclusion. This experiment used E. coli strain MG1655 and strains derived from it, DPD1818 (described above in this example) with a to/C::miniTn10 mutation, […] (described in example 3) with a yhcS::TN<Kan> mutation, and DPD2435 that carries both the to/C::miniTn10 and yhcS::TN<Kan> mutations. The latter strain was constructed using P1clr100Cm mediated transduction of DE112 with phage grown on strain DPD2410 (described in Example 3) and selection for kanamycin resistance. These four strains were each transformed with plasmids pTrcHis2TOPO®/lacZ (Invitrogen) for a control and pDEW668 that expresses the yhcRQP operon (described in Example 2). […] Vogel-Bonner minimal medium with 0.4% glucose was used. […] The inoculum was 50 μl of a 1:500 dilution into Vogel-Bonner medium with 0.4% glucose as a carbon source of overnight cultures of each of the plasmid-containing strains grown in the same medium except with addition of 25 μg/ml Ampicillin.

[6] = system: E. coli DPD1818 (tolC−) with pTrcHis2TOPO®/lacZ (control); test: as above; format: cell-based; conditions: Escherichia coli, 21 h, read-out: pHBA MIC
From the text: as §3

[7] = system: E. coli DPD2433 (yhcS−) with pDEW668 (yhcRQP); test: as above; format: cell-based; conditions: Escherichia coli, 21 h, read-out: pHBA MIC
From the text: as §3

[8] = system: E. coli DPD2433 (yhcS−) with pTrcHis2TOPO®/lacZ (control); test: as above; format: cell-based; conditions: Escherichia coli, 21 h, read-out: pHBA MIC
From the text: as §3

[9] = system: E. coli DPD2435 (yhcS−, tolC−) with pDEW668 (yhcRQP); test: as above; format: cell-based; conditions: Escherichia coli, 21 h, read-out: pHBA MIC
From the text: as §3

[10] = system: E. coli DPD2435 (yhcS−, tolC−) with pTrcHis2TOPO®/lacZ (control); test: as above; format: cell-based; conditions: Escherichia coli, 21 h, read-out: pHBA MIC
From the text: as §3

[11] = system: E. coli MG1655 (+) with pDEW668 (yhcRQP); test: as above; format: cell-based; conditions: Escherichia coli, MG1655, 21 h, read-out: pHBA MIC
From the text: as §3

[12] = system: E. coli MG1655 (+) with pTrcHis2TOPO®/lacZ (control); test: as above; format: cell-based; conditions: Escherichia coli, read-out: pHBA MIC, control plasmid, 21 hours at 37° C., sodium salt, highest tested 100 mM
From the text: as §3

[13] = system: yhcP gene (co-transcribed with yhcQ and yhcR); test: expression of yhcP upon treatment of E. coli cells with aromatic carboxylic acids; format: cell-based

O=C(O)c1ccc(O)cc1 [pHBA, para-hydroxybenzoic acid]
MIC [1]: 25 mM (≈ 3.45 mg/mL)
RLU ([2]; [pHBA] 1.6, thirty minutes): 6.72 RLU
RLU ([2]; [pHBA] 3.1, thirty minutes): 10.2 RLU
RLU ([2]; [pHBA] 6.2, thirty minutes): 16.2 RLU
RLU ([2]; [pHBA] 12.5, thirty minutes): 30.8 RLU
RLU ([2]; [pHBA] 25, thirty minutes): 66.6 RLU
RLU ([2]; [pHBA] 50, thirty minutes): 91.7 RLU
RLU ([2]; [pHBA] 100, thirty minutes): 0.437 RLU
RLU ([3]; [pHBA] 1.6, thirty minutes): 1.02 RLU
RLU ([3]; [pHBA] 3.1, thirty minutes): 1.16 RLU
RLU ([3]; [pHBA] 6.2, thirty minutes): 1.42 RLU
RLU ([3]; [pHBA] 12.5, thirty minutes): 1.82 RLU
RLU ([3]; [pHBA] 25, thirty minutes): 1.59 RLU
RLU ([3]; [pHBA] 50, thirty minutes): 0.614 RLU
RLU ([3]; [pHBA] 100, thirty minutes): 0.045 RLU
degree of growth within the pHBA zone of growth inhibition (E. coli strain MG1655): turbid
pHBA zone of growth inhibition, mm diameter (E. coli strain MG1655; average of two experiments): 9.5 mm
degree of growth within the pHBA zone of growth inhibition [4]: clear
pHBA zone of growth inhibition, mm diameter ([4]; average of two experiments): 20.2 mm
MIC (E. coli DPD2444 (yhcP−); Escherichia coli, read-out: MIC, DPD2444 (yhcP−)): 12.5 mM (≈ 1.73 mg/mL)
defined as substrate of the YhcP efflux pump by this genetic test (E. coli DPD2444 (yhcP−); MIC difference at least 2-fold and rank at least 2): substrates of the YhcP efflux pump
MIC (E. coli MG1655 (yhcP+); Escherichia coli, MG1655, read-out: MIC, MG1655 (yhcP+)): 100 mM (≈ 13.8 mg/mL)
Rank Diff (E. coli MG1655 (yhcP+); score of pigment color for MG1655 at the MIC for DPD2444 (0 = no color, 4 = full purple color)): 4
MIC [5]: 100 mM (≈ 13.8 mg/mL)
MIC [6]: 56 mM (≈ 7.73 mg/mL)
MIC [7]: 100 mM (≈ 13.8 mg/mL)
MIC [8]: 18 mM (≈ 2.49 mg/mL)
MIC [9]: 100 mM (≈ 13.8 mg/mL)
MIC [10]: 13 mM (≈ 1.8 mg/mL)
MIC [11]: 100 mM (≈ 13.8 mg/mL)
MIC [12]: 100 mM
expression of the yhcP gene upon treatment of E. coli cells [13]: highly upregulated

From patent publication US7279321B2, “Methods for increasing the resistance of a host cell to aromatic carboxylic acids” (priority 2003, dated 2007)
